Source: patent publication US4810648A, “Haloarylnitrile degrading gene, its use, and cells containing the gene” (Rhone Poulenc Agrochimie, priority 1987, dated 1989)

Assays:
tomato leaf sections = test: Tomato leaf sections in bromoxynil-containing medium under photoautotrophic conditions; assay type: cell-based, Lycopersicon esculentum cv. UC828
Description: Co-cultivation of tomato (Lycopersicon esculentum cv. UC828) cotyledonary explants was carried out as described previously with tobacco and kanamycin shoots regenerated. […] Approximately 5 mm leaf sections from surface-sterilized(10% hypochlorite; water washed) leaves were suspended in bromoxynil-containing medium at varying concentrations under photoautotrophic conditions. The media was MS salts containing 2 mg/l […], 1 mg/l isopentyladenine and 100 mg/l myoinositol and bromoxynil at 10^-5 or 10^-6 M. The same photoautotrophic conditions were employed as described for tobacco. […] Transgenic tomato plants (10-20 leaf stage) were sprayed with a commercial formulation of bromoxynil (BUCTRIL) and found to be resistant at 0.5 lbs/acre.

[1] = target: T1, Klebsiella ozaenae bromoxynil-specific nitrilase, N-terminal modified variant nit-23 (pBrx23) (Klebsiella pneumoniae, UniProt P10045); test: Kinetics of purified N-terminal modified nitrilase; assay type: biochemical, Klebsiella pneumoniae sub-species ozaenae; settings: purified nit-23
T1 construct: natural N-terminus truncated (Bal31, about 51 nt removed) and replaced by 17 pUC19-encoded residues; purified enzyme
Description: Plasmid pBrx9 was digested with BamH1, followed by resection with Bal31 for about 5 min to remove about 51 nt. The enzyme was inactivated, the resected linear DNA sequence ligated with BamH1 linkers, digested with BamH1 and recircularized under ligating conditions. […] This fragment was inserted into pCGN 566 which had been completely digested with BamH1 and SmaI to produce plasmid pBrx23, of 3.7Kb. Plasmid pCGN 566 is a derivative of pUC13 with polylinkers from pUC18 and pUC19 and the chloramphenicol resistance gene. The fragment from pBrx15 is inserted to be in reading frame with an upstream initiation codon and where 17 amino acids encoded by the pUC19 sequence replace amino acids of the naturally occurring nitrilase.
The following provides the sequence of the N-terminal modified nitrilase (nit-23). [drawing 3] Purification of the Wild-Type and Altered Nitrilase
Nitrilase was prepared from stationary phase MM 294 E. coli cells containing the pBrx9, pBrx11 or pBrx28 plasmids. Cultures were grown under ampicillin selection until the whole cell nitrilase assay yielded an OD640 of approximately 2.0. Cultures were centrifuged at 8,000 xg for 15 min at 4° C. The cells were washed in 0.1M potassium phosphate buffer pH 7.4, repelleted, dried, and frozen at -20° C. The pellet was thawed at 4° C. and resuspended in 40 ml 50 mM potassium phosphate buffer with 1 mM dithiothreitol, 0.1 mM EDTA (KDE). […]

tobacco leaf sections = test: Tobacco leaf sections in bromoxynil containing media under photoautotrophic conditions; assay type: cell-based, Nicotiana tabacum cv. "Xanthi"
Description: The plasmids were transformed into A, tumefaciens strain LBA4404, followed by co-cultivation with tobacco (Nicotiana tabacum cv. "Xanthi") cotyledonary explants. Kanamycin-resistant shoots were regenerated into tobacoo plants in accordance with conventional techniques.
Approximately 5 mm leaf section from surface-sterilized (10% hypochloriate; water-washed) leaves were suspended in bromoxynil containing media under photoautotrophic conditions. The media employed was MS salts containing 0.93 mg/l naphthylacetic acid and 0.11 mg/l benzylaminopurine, with varying amounts of bromoxynil. The concentration of bromoxynil varied from 10^-3 to 10^-6 M at 0.1 dilutions. The photoautotrophic conditions were 5% CO2, 10% O2, 85% N2. Control tobacco leaf sections which had not been transformed were bleached (inhibited) at 10^-6 M bromoxynil. By contrast, transformed leaf sections expressing the bromoxynil-specific nitrilase from plasmids pBrx39 and pBrx40 were resistant to 10^-5 M and 10^-4 M bromoxynil, respectively.

N#Cc1cc(Br)c(O)c(Br)c1 = test: Kinetics of purified wild-type bromoxynil-specific nitrilase; assay type: biochemical, Klebsiella pneumoniae sub-species ozaenae; settings: other: purified nit-wt, substrate not given, 30.0 °C
Description: All four colonies were grown in 200 mls L-broth containing 0.05% bromoxynil. Cells were disrupted with a French press, the high speed supernatants dialyzed against buffer containing 0.05M KPO, pH7.5; 2.5 mM dithiothreitol (DTT) and the individual crude extracts assayed for bromoxynil specific nitrilase activity. […] Cells (200 ml) were grown at 30° C. to mid log phase in M9 medium (Miller (1972) Experiments in Molecular Genetics, Cold Spring Harbor Laboratory) containing 0.1% glucose and 0.04% bromoxynil. Crude extracts were prepared by cell disruption, ultracentrifugation and dialysis of the supernatant in buffer containing 0.05M KPO4 pH 7.5 and 2.5 mM DTT. Substrate concentarion was 3 mM bromoxynil in all assays. Release of NH3 was monitored according to Harper Biochem. J. (1977) 167:685-692. The ability of K. ozaenae variant to grow in L-broth containing bromoxynil may result in acquired impermeability of the organism to the compound. However, the organism cannot grow in defined media utilizing bromoxynil as sole nitrogen source.
Nitrilase was prepared from stationary phase MM 294 E. coli cells containing the pBrx9, pBrx11 or pBrx28 plasmids. Cultures were grown under ampicillin selection until the whole cell nitrilase assay yielded an OD640 of approximately 2.0. Cultures were centrifuged at 8,000 xg for 15 min at 4° C. […]

Question: Which results are given for `N#Cc1cc(Br)c(O)c(Br)c1` [bromoxynil, 3,5-dibromo-4-hydroxybenzonitrile]?
Answer: minimal effective concentration (tomato leaf sections; Solanum lycopersicum, control tomato leaf sections, not transformed, read-out: concentration at which leaf sections were bleached): 1 µM; concentration to which leaf sections were resistant (tomato leaf sections; transformed tomato expressing nitrilase gene from pBrx29): 10^-5 M; Km [1]: 110 µM; Vmax [1]: 9 µmol/min/mg; minimal effective concentration (tobacco leaf sections; Nicotiana tabacum, control tobacco leaf sections, not transformed, read-out: concentration at which leaf sections were bleached (inhibited)): 1 µM; concentration to which leaf sections were resistant (tobacco leaf sections; transformed tobacco leaf sections expressing nitrilase from pBrx39): 10^-5 M; concentration to which leaf sections were resistant (tobacco leaf sections; transformed tobacco leaf sections expressing nitrilase from pBrx40): 10^-4 M

Question: How did the Km (N#Cc1cc(Br)c(O)c(Br)c1) turn out when “Klebsiella ozaenae bromoxynil-specific nitrilase, wild type (nit-wt, from pBrx9) (Klebsiella pneumoniae subsp. ozaenae)” was run?
Answer: 310 µM
